The subject of this assay is E. coli ATCC25922. Description: Stability in artificial gastric and intestinal fluid, read out by MIC assay. The format is in vitro ADME. How it is done:
The MIC test was performed using the method recommended by the National Committee for Clinical Laboratory Standards (NCCLS) Standards and Guidelines, and the method was modified according to the characteristics of antimicrobial peptides. The bacteria were cultured at 37 °C for 16 h, and the microbial suspension was diluted to a final concentration of 5 × 10^5 CFU/mL. Then, 50 µL of bacterial solution was mixed with 50 µL of MHB containing different concentrations peptides (0.5–256 µM) in a 96-well plate. […] The assays were performed three times. Geometric mean MIC represents the average MIC of the peptide against all the tested strains.
The stability of LR18 and C-LR18 in protease, serum, and gastrointestinal conditions was determined using MIC assay, as described previously.
The stability in gastrointestinal conditions was also determined. The peptides were diluted in artificial gastric fluid and artificial intestinal fluid, digested in water bath at 37 °C for 0.5 and 1 h, and then inactivated in water bath at 60 °C for 30 min. Then, the PH of the solution was adjusted to 7.0 with 10% Na2CO3. Subsequent steps were the same as for the MIC assay. The assays were performed three times.

Structures are written as SMILES. Where a SMILES comes first, the peptide text is derived from it. Bridges are numbered along the chain shown (N, C = ends).

For the compound `CC(C)C[C@@H]1NC(=O)[C@H](CCCNC(=N)N)NC(=O)[C@H](CCCNC(=N)N)NC(=O)[C@H](CC(C)C)NC(=O)[C@H](CC(C)C)NC(=O)[C@H](CCCNC(=N)N)NC(=O)[C@H](CC(C)C)NC(=O)[C@@H]2CCCN2C(=O)[C@H](CCCNC(=N)N)NC(=O)[C@H](CCCNC(=N)N)NC(=O)[C@@H]2CCCN2C(=O)[C@H](CC(C)C)NC(=O)[C@H](CCCNC(=N)N)NC(=O)[C@H](CC(C)C)NC(=O)[C@H](CC(C)C)NC(=O)[C@H](CCCNC(=N)N)NC(=O)[C@H](CCCNC(=N)N)NC(=O)[C@H](CC(C)C)NC(=O)[C@@H](N)CSSC[C@@H](C(=O)O)NC1=O` [C-LR18] (H-CLRRLLRLPRRPLRLLRRLC-OH; disulfide 1-20; N-terminus and C-terminus assumed), the “increase of MIC” value by setting is: (artificial gastric fluid 30 min) 8 times; (artificial intestinal fluid 30 min) 4 times; (artificial intestinal fluid 60 min) 16 times.

For the origin of these results see paper PMC11939470, “The Cyclic Antimicrobial Peptide C-LR18 Has Enhanced Antibacterial Activity, Improved Stability, and a Longer Half-Life Compared to the Original Peptide” (Antibiotics, 2025).
